In the NIST ThermoML archive (doi:10.1021/je8007759):

Test: xn = mol fraction of the nth substance listed

CC1CCC(=O)O1 (configuration not stated) [γ-valerolactone] + O=C=O
Fluid (supercritical or subcritical phases), Pycnometric method
Settings	mass density [kg/m3]
327.9 K, 12360 kPa, x1 = 0.1	876
327.9 K, 12500 kPa, x1 = 0.05	784
327.9 K, 12510 kPa, x1 = 0.025	726
327.9 K, 12630 kPa, x1 = 0.01	657
327.9 K, 12640 kPa, x1 = 0.15	937
327.9 K, 12700 kPa, x1 = 0.05	790
327.9 K, 12720 kPa, x1 = 0.025	735
327.9 K, 12740 kPa, x1 = 0.1	882
327.9 K, 12920 kPa, x1 = 0.05	795
327.9 K, 13010 kPa, x1 = 0.025	745
327.9 K, 13120 kPa, x1 = 0.15	941
327.9 K, 13130 kPa, x1 = 0.1	888
327.9 K, 13160 kPa, x1 = 0.05	800
327.9 K, 13320 kPa, x1 = 0.025	755
327.9 K, 13370 kPa, x1 = 0.1	891
327.9 K, 13410 kPa, x1 = 0.05	805
327.9 K, 13520 kPa, x1 = 0.15	943
327.9 K, 13640 kPa, x1 = 0.1	894
327.9 K, 13660 kPa, x1 = 0.025	765
327.9 K, 13700 kPa, x1 = 0.05	811
327.9 K, 13980 kPa, x1 = 0.15	947
327.9 K, 14010 kPa, x1 = 0.05	817
327.9 K, 14060 kPa, x1 = 0.025	776
327.9 K, 14180 kPa, x1 = 0.1	900
327.9 K, 14330 kPa, x1 = 0.05	823
327.9 K, 14440 kPa, x1 = 0.15	949
327.9 K, 14700 kPa, x1 = 0.05	829
327.9 K, 14780 kPa, x1 = 0.1	907
327.9 K, 14900 kPa, x1 = 0.15	952
327.9 K, 15080 kPa, x1 = 0.05	835
327.9 K, 15410 kPa, x1 = 0.1	913
327.9 K, 15460 kPa, x1 = 0.15	956
327.9 K, 15940 kPa, x1 = 0.15	959
327.9 K, 16050 kPa, x1 = 0.1	919
327.9 K, 16480 kPa, x1 = 0.15	962
327.9 K, 17080 kPa, x1 = 0.15	965
332.8 K, 12270 kPa, x1 = 0.025	651

mass density [kg/m3], 327.9 K, high pressure variable cell
Settings	x1 = 0.01	x1 = 0.025	x1 = 0.05	x1 = 0.1	x1 = 0.15
Gas	496	660	753	–	–
Liquid	–	–	–	863	925
